In paper PMC8972069 (Nuclear medicine and biology, 2020):

Columns and labels:
[1] = biological target: Human recombinant S1PR5 lysophospholipid receptor membrane (Homo sapiens, UniProt Q9H228); experiment: [^32P]S1P competitive binding assay, S1PR5
[2] = biological target: Human recombinant S1PR3 lysophospholipid receptor membrane (Homo sapiens, UniProt Q99500); experiment: [^32P]S1P competitive binding assay, S1PR3
[3] = biological target: T1, human recombinant S1PR4 lysophospholipid receptor membrane (Homo sapiens, UniProt O95977); experiment: [^32P]S1P competitive binding assay, S1PR4
T1 sequence (O95977 1-384): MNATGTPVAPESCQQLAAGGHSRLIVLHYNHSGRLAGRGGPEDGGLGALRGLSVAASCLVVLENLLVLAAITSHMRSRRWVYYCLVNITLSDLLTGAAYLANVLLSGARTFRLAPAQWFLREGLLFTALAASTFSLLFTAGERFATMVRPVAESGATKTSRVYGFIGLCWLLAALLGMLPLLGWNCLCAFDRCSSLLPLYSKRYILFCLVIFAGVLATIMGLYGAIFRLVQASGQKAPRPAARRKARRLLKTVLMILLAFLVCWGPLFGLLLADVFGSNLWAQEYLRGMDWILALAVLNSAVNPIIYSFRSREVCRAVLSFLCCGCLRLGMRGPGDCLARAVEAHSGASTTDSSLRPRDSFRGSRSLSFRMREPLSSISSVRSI

[4] = biological target: Human recombinant S1PR1 lysophospholipid receptor membrane (Homo sapiens, UniProt P21453); experiment: [^32P]S1P competitive binding assay, S1PR1
Sequence of Human recombinant S1PR1 lysophospholipid receptor membrane (P21453 whole entry): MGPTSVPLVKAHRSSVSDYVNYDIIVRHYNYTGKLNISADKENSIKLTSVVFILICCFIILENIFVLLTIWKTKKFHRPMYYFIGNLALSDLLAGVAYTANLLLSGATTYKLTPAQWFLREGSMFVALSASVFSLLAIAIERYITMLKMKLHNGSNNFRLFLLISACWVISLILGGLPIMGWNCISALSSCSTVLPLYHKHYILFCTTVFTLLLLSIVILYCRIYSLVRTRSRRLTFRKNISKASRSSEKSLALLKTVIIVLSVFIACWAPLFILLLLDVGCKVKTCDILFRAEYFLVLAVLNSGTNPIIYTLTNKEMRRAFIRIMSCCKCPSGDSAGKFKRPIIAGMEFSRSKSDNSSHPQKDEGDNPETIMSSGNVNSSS

Sequence of Human recombinant S1PR3 lysophospholipid receptor membrane (Q99500 whole entry): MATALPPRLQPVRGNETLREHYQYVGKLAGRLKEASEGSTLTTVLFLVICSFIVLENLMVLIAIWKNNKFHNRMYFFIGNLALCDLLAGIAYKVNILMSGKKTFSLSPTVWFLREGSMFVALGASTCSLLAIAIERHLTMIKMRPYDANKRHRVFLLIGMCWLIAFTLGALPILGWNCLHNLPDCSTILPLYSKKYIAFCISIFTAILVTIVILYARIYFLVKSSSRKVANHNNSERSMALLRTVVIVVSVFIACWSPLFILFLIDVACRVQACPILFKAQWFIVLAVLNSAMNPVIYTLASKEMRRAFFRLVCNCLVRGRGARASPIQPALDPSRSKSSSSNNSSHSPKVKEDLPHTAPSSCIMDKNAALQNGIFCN
Sequence of Human recombinant S1PR5 lysophospholipid receptor membrane (Q9H228 whole entry): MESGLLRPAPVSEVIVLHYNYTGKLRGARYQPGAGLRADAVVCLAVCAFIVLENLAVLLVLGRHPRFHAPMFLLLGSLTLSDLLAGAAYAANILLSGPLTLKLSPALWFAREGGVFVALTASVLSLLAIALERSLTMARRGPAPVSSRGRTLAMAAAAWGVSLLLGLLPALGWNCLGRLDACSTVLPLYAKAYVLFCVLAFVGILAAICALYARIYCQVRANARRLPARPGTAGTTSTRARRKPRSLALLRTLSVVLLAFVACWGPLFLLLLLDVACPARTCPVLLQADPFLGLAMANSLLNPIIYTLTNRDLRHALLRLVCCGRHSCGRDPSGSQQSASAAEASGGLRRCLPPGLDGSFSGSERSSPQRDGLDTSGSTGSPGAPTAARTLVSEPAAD

IC50 [1]: > 1000 nM | IC50 [2]: > 1000 nM | IC50 [3]: > 1000 nM | IC50 [4]: > 1000 nM
SMILES: COc1ccc(NC(=O)Cn2c(=O)c3ccccc3n(CC(=O)Nc3cc(I)c(OC)cc3OC)c2=O)cc1 [TZ6544, N-(5-iodo-2,4-dimethoxyphenyl)-2-(3-(2-((4-methoxyphenyl)amino)-2-oxoethyl)-2,4-dioxo-3,4-dihydroquinazolin-1(2H)-yl)acetamide]
